Molecular target: T1, eEF2 (Saccharomyces cerevisiae, UniProt P32324)
T1 construct: gene EFT1; native full-length eEF2 purified from yeast, diphthamide at residue 699
Experiment: X-ray crystallography, […] Å
Type: binding
Conditions: on the 80S ribosome with mRNA, Phe-tRNAPhe and fMet-tRNAfMet; GTP pocket of G domain, next to sarcin-ricin loop; Mg2+; 0.25 mM ligand

T1 sequence (P32324 whole entry): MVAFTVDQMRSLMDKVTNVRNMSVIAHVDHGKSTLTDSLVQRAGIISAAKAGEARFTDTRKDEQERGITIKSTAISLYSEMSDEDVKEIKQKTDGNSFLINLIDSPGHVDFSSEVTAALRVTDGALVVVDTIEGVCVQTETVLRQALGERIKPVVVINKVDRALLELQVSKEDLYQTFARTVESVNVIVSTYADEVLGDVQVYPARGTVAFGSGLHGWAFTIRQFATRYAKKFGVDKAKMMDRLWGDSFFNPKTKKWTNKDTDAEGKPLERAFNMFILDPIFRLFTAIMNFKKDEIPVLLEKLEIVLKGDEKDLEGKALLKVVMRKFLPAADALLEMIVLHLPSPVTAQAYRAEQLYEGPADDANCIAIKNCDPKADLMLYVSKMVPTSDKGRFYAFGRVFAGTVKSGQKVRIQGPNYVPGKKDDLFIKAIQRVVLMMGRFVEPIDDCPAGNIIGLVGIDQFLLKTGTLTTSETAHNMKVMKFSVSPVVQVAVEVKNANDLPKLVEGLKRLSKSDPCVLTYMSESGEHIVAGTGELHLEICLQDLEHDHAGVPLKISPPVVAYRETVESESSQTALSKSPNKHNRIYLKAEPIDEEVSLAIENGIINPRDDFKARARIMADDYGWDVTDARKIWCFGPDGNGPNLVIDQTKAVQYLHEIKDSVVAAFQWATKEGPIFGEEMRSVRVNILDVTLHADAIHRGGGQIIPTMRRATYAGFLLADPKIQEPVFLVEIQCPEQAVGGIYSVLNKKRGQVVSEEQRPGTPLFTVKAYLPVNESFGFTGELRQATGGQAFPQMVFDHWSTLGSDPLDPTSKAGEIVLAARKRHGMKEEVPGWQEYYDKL

SMILES: Nc1nc2c(ncn2[C@@H]2O[C@H](COP(=O)(O)OP(=O)(O)CP(=O)(O)O)[C@@H](O)[C@H]2O)c(=O)[nH]1 [GMPPCP]
- X-ray crystallography, 3.2 Å: native S. cerevisiae eEF2, the nonhydrolyzable GTP analogue GMPPCP, mRNA and two tRNAs
